Measured values from US5071643A, “Solvent system enhancing the solubility of pharmaceuticals for encapsulation” (R. P. Scherer Corporation, priority 1987, dated 1991).

Experiments:
[1] = Appearance of ibuprofen mixtures in PEG 400 with sodium or potassium hydroxide (visual inspection); format: physicochemical
Experimental: Mixtures were prepared in 10 g quantities by dispersing the acidic pharmaceutical agent in polyethylene glycol or polyethylene glycol and glycerin or polyethylene glycol and polyvinylpyrrolidone or polyethylene glycol, glycerin, and polyvinylpyrrolidone. Aqueous solutions of hydroxide were then added.

[2] = Solubility of the basic drug thioridazine in PEG 400 in presence and absence of hydrogen ion

CC(C)Cc1ccc(C(C)C(=O)O)cc1 (stereo not drawn) [Ibuprofen, ibuprofen]
Appearance (Room temp) ([1]; 200 mg in 200 mg PEG 400, NaOH 0.1 M/E, water 1.5 wt %, slight ppt): Insoluble | Appearance (Room temp) ([1]; 200 mg in 200 mg PEG 400, NaOH 0.2 M/E, water 2.8 wt %): Soluble | Appearance (Room temp) ([1]; 200 mg in 200 mg PEG 400, NaOH 0.3 M/E, water 4.1 wt %): Soluble | Appearance (Room temp) ([1]; 200 mg in 200 mg PEG 400, NaOH 0.4 M/E, water 5.2 wt %): Soluble | Appearance (Room temp) ([1]; 200 mg in 200 mg PEG 400, NaOH 0.5 M/E, water 6.6 wt %, solid admixture): Insoluble | precipitation in presence of sodium hydroxide ([1]; PEG 400, 0.5 or more mole equivalents NaOH): precipitation occurs | precipitation in presence of potassium hydroxide ([1]; PEG 400, 1.0 mole equivalents KOH, even at 4° C.): no precipitation occurs

CSc1ccc2c(c1)N(CCC1CCCCN1C)c1ccccc1S2 (stereo not drawn) [Thioridazine, thioridazine]
RESULT at 5° C. ([2]; FORMULA I, Hydrochloric Acid 0.0 mg): INSOLUBLE | RESULT at 5° C. ([2]; FORMULA II, Hydrochloric Acid 2.4 mg): SOLUBLE
